Holding throughout (assay): relative viability (nuclei count vs DMSO), 5 days (fraction); higher = more cells survive
Compound in the assay “Dovitinib + Alpelisib”: CN1CCN(c2ccc3nc(-c4c(N)c5c(F)cccc5[nH]c4=O)[nH]c3c2)CC1 [Dovitinib] + Cc1nc(NC(=O)N2CCC[C@H]2C(N)=O)sc1-c1ccnc(C(C)(C)C(F)(F)F)c1 [Alpelisib] (partner 2 µM)
The method, boiled down:
(§1)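 Cells from lung cancer lines were seeded into 1536-well plates and, one day later, dosed by pin tool. Treatments were either a single drug or a fixed dose of an anchor drug with five library-drug doses (not always all listed) in √10 steps. After 5 days, nuclei were stained in a one-step fixation (final 0.05% Triton X-100, 1% formaldehyde, 1 ug/ml Hoechst) and counted on 4× images, and relative viability is the treated-to-vehicle nuclei ratio, as the median of duplicate plates.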

Compound in the assay “Dovitinib + Dasatinib”: CN1CCN(c2ccc3nc(-c4c(N)c5c(F)cccc5[nH]c4=O)[nH]c3c2)CC1 [Dovitinib] + Cc1nc(Nc2ncc(C(=O)Nc3c(C)cccc3Cl)s2)cc(N2CCN(CCO)CC2)n1 [Dasatinib] (partner 0.075 µM)
In a few lines:
as §1

Compound in the assay “Dovitinib + Palbociclib”: CN1CCN(c2ccc3nc(-c4c(N)c5c(F)cccc5[nH]c4=O)[nH]c3c2)CC1 [Dovitinib] + CC(=O)c1c(C)c2cnc(Nc3ccc(N4CCNCC4)cn3)nc2n(C2CCCC2)c1=O [Palbociclib] (partner 0.5 µM)
The method, boiled down:
as §1

Compound in the assay “Dovitinib + Bortezomib”: CN1CCN(c2ccc3nc(-c4c(N)c5c(F)cccc5[nH]c4=O)[nH]c3c2)CC1 [Dovitinib] + CC(C)C[C@H](NC(=O)[C@H](Cc1ccccc1)NC(=O)c1cnccn1)B(O)O [Bortezomib] (partner 0.002 µM)
The method, boiled down:
as §1

Consider LOU-NH91, for which the relative viability came to 0.818 with Dovitinib + Alpelisib (first compound 0.02 µM); 0.73 in the assay with Dovitinib + Alpelisib (first compound 0.06325 µM); 0.714 in the assay with Dovitinib + Alpelisib (first compound 0.2 µM); 0.75 in the assay with Dovitinib + Alpelisib (first compound 0.6325 µM); 0.765 with Dovitinib + Alpelisib (first compound 2 µM); 0.586 in the assay with Dovitinib + Dasatinib (first compound 0.02 µM). Moreover, the relative viability in the assay with Dovitinib + Dasatinib (first compound 0.06325 µM) came to 0.553; in the assay with Dovitinib + Dasatinib (first compound 0.2 µM), 0.549; with Dovitinib + Dasatinib (first compound 0.6325 µM), 0.64; with Dovitinib + Dasatinib (first compound 2 µM), 0.574; with Dovitinib + Palbociclib (first compound 0.02 µM), 0.526; with Dovitinib + Palbociclib (first compound 0.06325 µM), 0.528. For the same cell line, the relative viability was 0.535 in the assay with Dovitinib + Palbociclib (first compound 0.2 µM); 0.553 in the assay with Dovitinib + Palbociclib (first compound 0.6325 µM); 0.525 in the assay with Dovitinib + Palbociclib (first compound 2 µM); 0.433 with Dovitinib + Bortezomib (first compound 0.02 µM); 0.502 with Dovitinib + Bortezomib (first compound 0.06325 µM); 0.479 with Dovitinib + Bortezomib (first compound 0.2 µM). Also, the relative viability was 0.585 in the assay with Dovitinib + Bortezomib (first compound 0.6325 µM) and 0.401 with Dovitinib + Bortezomib (first compound 2 µM).
As for NCI-H2347, the relative viability with Dovitinib + Alpelisib (first compound 0.02 µM) stood at 1.11; with Dovitinib + Alpelisib (first compound 0.06325 µM) it was 0.988; with Dovitinib + Alpelisib (first compound 0.2 µM), 1.08; with Dovitinib + Alpelisib (first compound 0.6325 µM) it was 1.09; with Dovitinib + Alpelisib (first compound 2 µM), 1.09; with Dovitinib + Dasatinib (first compound 0.02 µM), 0.317. For the same cell line, the relative viability in the assay with Dovitinib + Dasatinib (first compound 0.06325 µM) worked out at 0.276; with Dovitinib + Dasatinib (first compound 0.2 µM), 0.322; in the assay with Dovitinib + Dasatinib (first compound 0.6325 µM), 0.303; with Dovitinib + Dasatinib (first compound 2 µM), 0.33; with Dovitinib + Palbociclib (first compound 0.02 µM), 0.454; with Dovitinib + Palbociclib (first compound 0.06325 µM) it was 0.446. Moreover, the relative viability is 0.462 with Dovitinib + Palbociclib (first compound 0.2 µM); 0.474 with Dovitinib + Palbociclib (first compound 0.6325 µM); 0.409 in the assay with Dovitinib + Palbociclib (first compound 2 µM); 1.18 in the assay with Dovitinib + Bortezomib (first compound 0.02 µM); 0.935 with Dovitinib + Bortezomib (first compound 0.06325 µM); 0.907 with Dovitinib + Bortezomib (first compound 0.2 µM). The relative viability amounted to 1.43 with Dovitinib + Bortezomib (first compound 0.6325 µM) and 1.09 in the assay with Dovitinib + Bortezomib (first compound 2 µM).
Take NCI-H2126: the relative viability amounted to 0.761 with Dovitinib + Alpelisib (first compound 0.02 µM); 0.72 in the assay with Dovitinib + Alpelisib (first compound 0.06325 µM); 0.716 in the assay with Dovitinib + Alpelisib (first compound 0.2 µM); 0.769 with Dovitinib + Alpelisib (first compound 0.6325 µM); 0.695 with Dovitinib + Alpelisib (first compound 2 µM); 0.599 with Dovitinib + Dasatinib (first compound 0.02 µM). Also, the relative viability with Dovitinib + Dasatinib (first compound 0.06325 µM) amounted to 0.596; in the assay with Dovitinib + Dasatinib (first compound 0.2 µM), 0.766; with Dovitinib + Dasatinib (first compound 0.6325 µM), 0.622; with Dovitinib + Dasatinib (first compound 2 µM) it was 0.623; in the assay with Dovitinib + Palbociclib (first compound 0.02 µM), 0.363; with Dovitinib + Palbociclib (first compound 0.06325 µM), 0.357. Moreover, the relative viability with Dovitinib + Palbociclib (first compound 0.2 µM) worked out at 0.354; in the assay with Dovitinib + Palbociclib (first compound 0.6325 µM), 0.339; in the assay with Dovitinib + Palbociclib (first compound 2 µM) it was 0.327; with Dovitinib + Bortezomib (first compound 0.02 µM), 1.11; in the assay with Dovitinib + Bortezomib (first compound 0.06325 µM), 1.09; with Dovitinib + Bortezomib (first compound 0.2 µM), 1.2. The relative viability in the assay with Dovitinib + Bortezomib (first compound 0.6325 µM) was determined as 1.08; in the assay with Dovitinib + Bortezomib (first compound 2 µM), 1.07.
With HCC-827, the relative viability was 0.931 in the assay with Dovitinib + Alpelisib (first compound 0.02 µM); 0.926 with Dovitinib + Alpelisib (first compound 0.06325 µM); 0.918 in the assay with Dovitinib + Alpelisib (first compound 0.2 µM); 0.987 in the assay with Dovitinib + Alpelisib (first compound 0.6325 µM); 1.03 with Dovitinib + Alpelisib (first compound 2 µM); 0.358 with Dovitinib + Dasatinib (first compound 0.02 µM). In addition, the relative viability with Dovitinib + Dasatinib (first compound 0.06325 µM) turned out to be 0.327; in the assay with Dovitinib + Dasatinib (first compound 0.2 µM), 0.357; in the assay with Dovitinib + Dasatinib (first compound 0.6325 µM) it was 0.366; in the assay with Dovitinib + Dasatinib (first compound 2 µM), 0.407; with Dovitinib + Palbociclib (first compound 0.02 µM), 0.527; in the assay with Dovitinib + Palbociclib (first compound 0.06325 µM) it was 0.461. The relative viability with Dovitinib + Palbociclib (first compound 0.2 µM) stood at 0.409; in the assay with Dovitinib + Palbociclib (first compound 0.6325 µM) it was 0.53; in the assay with Dovitinib + Palbociclib (first compound 2 µM) it was 0.528; with Dovitinib + Bortezomib (first compound 0.02 µM) it was 1.08; with Dovitinib + Bortezomib (first compound 0.06325 µM), 1.07; in the assay with Dovitinib + Bortezomib (first compound 0.2 µM) it was 1.04. Further, the relative viability is 1.09 with Dovitinib + Bortezomib (first compound 0.6325 µM) and 1.05 in the assay with Dovitinib + Bortezomib (first compound 2 µM).
Take NCI-H3122: the relative viability with Dovitinib + Alpelisib (first compound 0.02 µM) turned out to be 0.703; with Dovitinib + Alpelisib (first compound 0.06325 µM), 0.681; in the assay with Dovitinib + Alpelisib (first compound 0.2 µM), 0.8; in the assay with Dovitinib + Alpelisib (first compound 0.6325 µM) it was 0.82; with Dovitinib + Alpelisib (first compound 2 µM) it was 0.839; with Dovitinib + Dasatinib (first compound 0.02 µM), 0.721. For the same cell line, the relative viability with Dovitinib + Dasatinib (first compound 0.06325 µM) worked out at 0.857; with Dovitinib + Dasatinib (first compound 0.2 µM), 0.914; with Dovitinib + Dasatinib (first compound 0.6325 µM) it was 0.832; with Dovitinib + Dasatinib (first compound 2 µM), 0.749; with Dovitinib + Palbociclib (first compound 0.02 µM), 0.226; in the assay with Dovitinib + Palbociclib (first compound 0.06325 µM), 0.173. For the same cell line, the relative viability with Dovitinib + Palbociclib (first compound 0.2 µM) turned out to be 0.184; in the assay with Dovitinib + Palbociclib (first compound 0.6325 µM), 0.181; with Dovitinib + Palbociclib (first compound 2 µM) it was 0.21; with Dovitinib + Bortezomib (first compound 0.02 µM), 0.984; with Dovitinib + Bortezomib (first compound 0.06325 µM), 0.977; in the assay with Dovitinib + Bortezomib (first compound 0.2 µM) it was 1.03. Moreover, the relative viability in the assay with Dovitinib + Bortezomib (first compound 0.6325 µM) is 1.05; in the assay with Dovitinib + Bortezomib (first compound 2 µM), 1.01.
Consider HOP-62, for which the relative viability with Dovitinib + Alpelisib (first compound 0.02 µM) was 0.804; in the assay with Dovitinib + Alpelisib (first compound 0.06325 µM) it was 0.844; with Dovitinib + Alpelisib (first compound 0.2 µM), 1.27; in the assay with Dovitinib + Alpelisib (first compound 0.6325 µM), 0.896; with Dovitinib + Alpelisib (first compound 2 µM), 0.829; with Dovitinib + Dasatinib (first compound 0.02 µM), 0.643. Besides, the relative viability turned out to be 0.601 with Dovitinib + Dasatinib (first compound 0.06325 µM); 0.64 with Dovitinib + Dasatinib (first compound 0.2 µM); 0.632 in the assay with Dovitinib + Dasatinib (first compound 0.6325 µM); 0.662 with Dovitinib + Dasatinib (first compound 2 µM); 0.355 in the assay with Dovitinib + Palbociclib (first compound 0.02 µM); 0.456 in the assay with Dovitinib + Palbociclib (first compound 0.06325 µM). Further, the relative viability with Dovitinib + Palbociclib (first compound 0.2 µM) worked out at 0.465; with Dovitinib + Palbociclib (first compound 0.6325 µM), 0.396; in the assay with Dovitinib + Palbociclib (first compound 2 µM) it was 0.499; with Dovitinib + Bortezomib (first compound 0.02 µM), 0.604; in the assay with Dovitinib + Bortezomib (first compound 0.06325 µM), 0.619; in the assay with Dovitinib + Bortezomib (first compound 0.2 µM), 0.794. Also, the figures for the relative viability in the assay with Dovitinib + Bortezomib (first compound 0.6325 µM) and with Dovitinib + Bortezomib (first compound 2 µM) were 0.968 and 0.578, respectively.

The record behind these values is the supplement of paper PMC10307832.
